The source of these data is patent US20110217300A1, “Quinazolinone Compounds and Methods of Use Thereof” (priority 2007, published 2011).

One test deals with NCI-H460. The experiment in a line: MTS cell viability assay. It is filed as cell-based, human. Conditions: Homo sapiens, NCI-H460, 72 h. Here is the method:
Cell viability was determined by measuring the activity of dehydrogenase enzymes in metabolically active cells using a tetrazolium compound, MTS. The assay was performed as described in Promega Technical Bulletin No. 169 (CellTiter 96 Aqueous Non-Radioactive Cell Proliferation Assay). Two human cancer cell lines were assayed (see, Table 1). Cells were maintained at 37° C. and 5% CO2 in DMEM media (4.5 g/L glucose) supplemented with 10% heat-inactivated FBS, 10 mM L-glutamine, and 10 mM Hepes pH 7.5. Briefly, cells were seeded in 96-well plates as set forth in Table 1 and incubated for 16-24 hours. Candidate compounds were serially diluted in DMSO, further diluted in cell culture media, and then added to cells (final DMSO concentration of 0.33%). Cells were incubated in the presence of candidate compound for 72 hours. MTS stock solution (MTS 2 gm/L, PMS […] in PBS) was added to the cells (final concentration MTS […] and PMS 7.67 mg/L) and incubated for 4 hours. SDS was added to a final concentration of 1.4% and absorbance at 490 nm was measured within two hours using a plate reader. […] GI50 values were given in Table 2 for the compounds listed. The Compound Numbers in Table 2 correspond to the numbers listed parenthetically in the Example titles. Where multiple measurements were made by different technicians, both values are given.
Cell viability was determined for N-(3-amino-propyl)-3-chloro-N—[(R)-1-(7-chloro-4-oxo-3-phenylamino-3,4-dihydro-quinazolin-2-yl)-but-3-ynyl]-2-fluoro-benzamide (compound I of Table 2). The cell viability assay of Example 105 was used. GI50 was determined using a variety of cell lines. Cells were plated at 100-5000 cells per well. At least 2 replicates were performed. Where multiple measurements were made by different technicians, both values are given.

The test system of the next test is A549. The experiment in a line: MTS cell viability assay. The test is classed as cell-based. As to conditions: Homo sapiens, A549 non small cell lung, 72 hours, read-out: MTS NCI A549 GI50. Here is the method:
Two human cancer cell lines were assayed (see, Table 1). Cells were maintained at 37° C. and 5% CO2 in DMEM media (4.5 g/L glucose) supplemented with 10% heat-inactivated FBS, 10 mM L-glutamine, and 10 mM Hepes pH 7.5. Briefly, cells were seeded in 96-well plates as set forth in Table 1 and incubated for 16-24 hours. Candidate compounds were serially diluted in DMSO, further diluted in cell culture media, and then added to cells (final DMSO concentration of 0.33%). Cells were incubated in the presence of candidate compound for 72 hours. […] The Compound Numbers in Table 2 correspond to the numbers listed parenthetically in the Example titles.

In a further test the target is T1, HsEg5 (Homo sapiens, UniProt P52732).
T1 sequence (P52732 18-359 limits assumed): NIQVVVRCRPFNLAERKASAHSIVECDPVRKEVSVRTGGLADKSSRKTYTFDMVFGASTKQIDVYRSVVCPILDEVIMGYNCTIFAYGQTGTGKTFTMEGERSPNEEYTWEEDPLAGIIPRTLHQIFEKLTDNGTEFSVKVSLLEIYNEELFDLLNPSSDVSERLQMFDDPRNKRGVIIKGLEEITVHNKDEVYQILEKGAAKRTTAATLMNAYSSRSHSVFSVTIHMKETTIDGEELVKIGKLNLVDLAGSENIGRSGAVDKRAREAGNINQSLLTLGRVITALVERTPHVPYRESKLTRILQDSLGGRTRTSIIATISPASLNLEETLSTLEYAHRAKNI
As to the kind of experiment: Fluorescence detection of HsEg5 ATPase activity (ADP Quest, automated). The test is classed as biochemical. Here is the method:
Purified HsEg5 motor fragment was activated by mixture with preformed MT polymer (Cytoskeleton, Denver, Colo.) at room temperature for 20 minutes. MT activated ATPase activity was measured using ADP Quest (DiscoverX, Fremont, Calif.) in which a coupled-enzyme assay can translate accumulation of ADP into detectable resorufin signal (FIG. 1A). Fluorescence was measured at λEx=535 nm and λEm=590 nm on a Wallac Victor 2 plate reader (Perkin-Elmer Life Sciences, Boston, Mass.). Reagent A and B from ADP Quest kit were aliquoted and frozen in −20° C. before use. A standard curve was determined using the provided ADP reagent in the reaction buffer that consisted of 50 mM Pipes (pH7.0), 5.0 mM MgCl2, 20 μM paclitaxel and […]. The same buffer was used for Km determination with HsEg5 concentration of 10 nM.
For inhibitor screening, 4 μL of compounds were incubated with 10 μL of MT-activated HsEg5 such that the final concentrations for compound range from 100 μM to 5 nM (1 to 3 serial dilutions, final concentration) and final concentration for HsEg5 is 10 nM. The mixture was incubated at room temperature for 10 minutes with mild shaking. The screening assay contained 0.3% DMSO in all reaction wells. We used wells containing only DMSO as negative controls and wells without ATP as background. Addition of 6 μL ATP (final concentration of 20 μM) initiated the ATP hydrolysis reaction. The 20 μL-reaction was allowed to proceed at room temperature for 10 minutes before addition of 10 μL of reagent A and 20 μL of reagent B. After 20-minute development at room temperature, the fluorescence was measured and data analysis was performed using GraphPad Prism version 3.0 (GraphPad Software, San Diego, Calif.)
For the purpose of high-throughput screening, we automated the fluorescence assay using a Sciclone ALH3000 (Caliper Life Sciences, Hopkinton, Mass.) and Multidrop 384 (Thermo Electron Corp, Waltham, Mass.). First, compound dilution plates for screening (at 10 μM or 1 μM) and ICso determination (10 data points from 100 μM to 5 nM) were made in Corning polypropylene V-bottom 96-well plates. In both cases, the 1st and 7th column contained background (No ATP addition) and negative control (DMSO only). For screening compounds at 10 μM or 1 μM, […] of each compound at 50 μM or 5 μM were used in a 20 μL assay reaction. For IC50 determination, the mother compound plate contained 24 μL of tested compound at stock concentration of 30 mM. 6 μL of each test compound in 30 mM was added to each well in the column 2 and followed by 1:3 serial dilutions in DMSO with the Sciclone ALH3000. 234 μL of assay buffer was then added using a Multidrop 384. Then 4 μL of diluted compounds was used in 20 μL-reaction. The final concentration was a 1:300 dilution of the original stock. Second, a reagent source plate was prepared with three rows designated to MT-activated HsEg5, Reagent A and Reagent B respectively. MTs were diluted with assay buffer and polymerized at room temperature for 10 minutes. Just before use, HsEg5 protein was thawed on ice and activated by addition of MT polymers at room temperature for 20 minutes. HsEg5/MT was then added to Row A of the reagent source plate. The final assay concentration was 10 nM HsEg5 and 500 nM MTs. Reagent A and B were stored at −20° C. and thawed at room temperature followed by transferring to rows B & C of the reagent source plate. Third, ATP substrate plate was prepared by transferring 80 μM ATP solution to each well of a V-shape 96-well plate except the wells in the first row where assay buffer was added instead to have no-ATP blanks. The final concentration for ATP in the assay was 20 μM.
The assay was programmed on Sciclone ALH3000 with the following procedures: 1) Addition of 4 μL compounds to the assay plate, followed by addition of 10 μL of MT-activated HsEg5. […]

[1] abbreviates: read-out: MTS NCI H460 GI50, NCI-H460 non small cell lung, 72 hours.

Where two headings read alike, the source gives them in different places.

On to `CC(c1nc2cc(Cl)ccc2c(=O)n1Nc1ccccc1)N(CCCN)C(=O)c1ccc(Cl)c(Cl)c1` (stereo not drawn) [Compound 41, N-(3-Aminopropyl)-N-[1-(3-anilino-7-chloro-4-oxo-3,4-dihydroquinazolin-2-yl)ethyl]-3,4-dichlorobenzamide], for which the values for the GI50 with NCI-H460 (read-out: MTS NCI H460 GI50) and with A549 were 6.28 µM and 5.67 µM, respectively. The half-maximal inhibitory concentration (IC50) at HsEg5 came out at 3.37 µM.
On the same counts, the results for `CCC(c1nc2cc(Cl)ccc2c(=O)n1Nc1ccccc1)N(CCCN)C(=O)c1ccc([N+](=O)[O-])cc1` (stereo not drawn) [Compound 5, N-(3-Aminopropyl)-N-[1-(3-anilino-7-chloro-4-oxo-3,4-dihydroquinazolin-2-yl)propyl]-4-nitrobenzamide] are 2.39 µM, 4.4 µM and 1.05 µM.
On the same counts, the results for `CCC(c1nc2cc(Cl)ccc2c(=O)n1Nc1ccccc1)N(CCN)C(=O)c1ccc(C)cc1` (stereo not drawn) [Compound 61, N-(2-Aminoethyl)-N-[1-(3-anilino-7-chloro-4-oxo-3,4-dihydroquinazolin-2-yl)propyl]-4-methylbenzamide] are 12.5 µM, 14.2 µM and 3.89 µM.
For the molecule `NCCCN(C(=O)c1ccc(F)c(F)c1)C(Cc1cccs1)c1nc2cc(Cl)ccc2c(=O)n1Nc1ccccc1` (stereo not drawn) [Compound 52, N-(3-Aminopropyl)-N-[1-(3-anilino-7-chloro-4-oxo-3,4-dihydroquinazolin-2-yl)-2-(2-thienyl)ethyl]-3,4-difluorobenzamide], the GI50 with NCI-H460 (setting [1]) was 3.47 µM; in the test on A549 (A549, 72 h), 4.29 µM. The molecule also showed a half-inhibitory concentration (IC50) against HsEg5 of 1.25 µM.
`CCC(c1nc2cc(Cl)ccc2c(=O)n1Nc1ccccc1)N(CCCN)C(=O)c1cccc(Cl)c1F` (stereo not drawn) [Compound 19, N-(3-Aminopropyl)-N-[1-(3-anilino-7-chloro-4-oxo-3,4-dihydroquinazolin-2-yl)propyl]-3-chloro-2-fluorobenzamide]: the concentration for 50% growth inhibition (GI50) came to 0.894 µM with NCI-H460 (read-out: MTS NCI H460 GI50) and 1.57 µM with A549. This molecule also showed an IC50 on HsEg5 of 0.582 µM.
Consider `CCC(c1nc2cc(Cl)ccc2c(=O)n1Nc1ccccc1)N(CCN)C(=O)c1ccc(C)c(F)c1F` (stereo not drawn) [Compound 65, N-(2-Aminoethyl)-N-[1-(3-anilino-7-chloro-4-oxo-3,4-dihydroquinazolin-2-yl)propyl]-2,3-difluoro-4-methylbenzamide], for which the GI50 came to 11.4 µM with NCI-H460 (read-out: MTS NCI H460 GI50) and 12.4 µM in the test with A549. 4.08 µM corresponded to half-maximal inhibition on HsEg5 (IC50).
On the same counts, the results for `CC(C)CC(c1nc2cc(Cl)ccc2c(=O)n1Nc1ccccc1)N(CCCN)C(=O)c1cc(Cl)cc(Cl)c1` (stereo not drawn) [Compound 36, N-(3-Aminopropyl)-N-[1-(3-anilino-7-chloro-4-oxo-3,4-dihydroquinazolin-2-yl)-3-methylbutyl]-3,5-dichlorobenzamide] are 3.77 µM, 4.37 µM and 1.86 µM.
On the same counts, the results for `CC(C)C(c1nc2cc(Cl)ccc2c(=O)n1Nc1ccccc1)N(CCCN)C(=O)c1ccc2ccccc2n1` (stereo not drawn) [Compound 47, N-(3-Aminopropyl)-N-[1-(3-anilino-7-chloro-4-oxo-3,4-dihydroquinazolin-2-yl)-2-methylpropyl]quinoline-2-carboxamide] are 2.7 µM, 4.09 µM and 3.23 µM.
Consider `CC(C)C(c1nc2cc(Cl)ccc2c(=O)n1Nc1ccccc1)N(CCCN)C(=O)c1cccc(Br)c1` (stereo not drawn) [Compound 44, N-(3-Aminopropyl)-N-[1-(3-anilino-7-chloro-4-oxo-3,4-dihydroquinazolin-2-yl)-2-methylpropyl]-3-bromobenzamide], for which the concentration for 50% growth inhibition (GI50) was determined as 13.4 µM in the test with NCI-H460 (setting [1]) and 13.8 µM in the test on A549 (A549, 72 h). The same molecule had a concentration for half-maximal inhibition (IC50) on HsEg5 of 1.85 µM.
As for `CCC(c1nc2cc(Cl)ccc2c(=O)n1Nc1ccccc1)N(CCCN)C(=O)c1ccc2ccccc2n1` (stereo not drawn) [Compound 22, N-(3-Aminopropyl)-N-[1-(3-anilino-7-chloro-4-oxo-3,4-dihydroquinazolin-2-yl)propyl]quinoline-2-carboxamide], the figures for the 50% growth inhibitory concentration (GI50) in the test with NCI-H460 (read-out: MTS NCI H460 GI50) and in the test with A549 were 1.17 µM and 2.08 µM, respectively. This molecule returned an IC50 on HsEg5 of 1.61 µM.
On the same counts, the results for `CCC(c1nc2cc(Cl)ccc2c(=O)n1Nc1ccccc1)N(CCCN)C(=O)c1cccc(Cl)c1Cl` (stereo not drawn) [Compound 12, N-(3-Aminopropyl)-N-[1-(3-anilino-7-chloro-4-oxo-3,4-dihydroquinazolin-2-yl)propyl]-2,3-dichlorobenzamide] are 2.11 µM, 3.37 µM and 0.818 µM.
On the same counts, the results for `C#CCC(c1nc2cc(Cl)ccc2c(=O)n1Nc1ccccc1)N(CCCN)C(=O)c1cc(F)c(Cl)cc1F` (stereo not drawn) [Compound 56, N-(3-Aminopropyl)-N-[1-(3-anilino-7-chloro-4-oxo-3,4-dihydroquinazolin-2-yl)but-3-yn-1-yl]-4-chloro-2,5-difluorobenzamide] are 1.86 µM, 3.82 µM and 0.138 µM.
